# Counter-ions that a name gives are not always drawn. Like-named read-outs stand apart in the source and are kept apart here.
# Legend:
# [1] = system: pseudotyped VSV G particles (VSVpp) in Huh7-high CD81 cells; test: microbe, parasite or virus in culture; format: cell-based, vesicular stomatitis virus; details: Vesicular stomatitis virus, 72 h, read-out: VSVpp (EC50, μM)
# [2] = system: Pseudotyped HCV GT1b particles (HCVpp), entry into Huh7-high CD81 cells; test: microbe, parasite or virus in culture; format: cell-based, HCV GT1b Con1 strain
# [3] = Hepatitis C virus, GT1B, 72 h, read-out: HCVpp GT-1b (EC50, μM)
SMILES,EC50 [1],"EC50 [2, 3]",EC50 ([2]; read-out: HCVpp GT-1b (EC50))
"COc1ccc(-c2c(Cl)cc(Nc3n[nH]c(N)n3)cc2C(F)(F)F)cc1S(=O)(=O)N(CC(F)(F)F)C1CCNCC1 [Compound 234, 4′-(5-Amino-1H-[1,2,4]triazol-3-ylamino)-6′-chloro-4-methoxy-2′-trifluoromethyl-biphenyl-3-sulfonic acid piperidin-4-yl-(2,2,2-trifluoro-ethyl)-amide; compound with trifluoro-acetic acid]",> 10 µM,0.005 µM,
"Nc1nc(Nc2cc(Cl)c(-c3ccc(NC(=O)C4CCC(F)(F)CC4)cc3)c(Cl)c2)n[nH]1 [Compound 250, 4,4-Difluorocyclohexanecarboxylic acid [4′-(5-amino-1H-[1,2,4]triazol-3-ylamino)-2′,6′-dichloro-biphenyl-4-yl]-amide]",14 µM,0.013 µM,
COc1ccc(-c2c(Cl)cc(Nc3n[nH]c(N)n3)cc2C(F)(F)F)cc1S(=O)(=O)NC1(C#N)CC1 [Compound 225],> 10 µM,0.031 µM,
N#Cc1ccc(-c2c(F)cc(Nc3nc(N)n[nH]3)cc2F)cc1 [Compound 87],> 10 µM,0.696 µM,
"CC(C)(C)OC(=O)N1CCC(Oc2ccc(-c3c(Cl)cc(Nc4n[nH]c(N)n4)cc3C(F)(F)F)cc2)CC1 [Compound 138, 4-[4′-(5-Amino-1H-[1,2,4]triazol-3-ylamino)-6′-chloro-2′-trifluoromethyl-biphenyl-4-yloxy]-piperidine-1-carboxylic acid tert-butyl ester]",> 10 µM,0.162 µM,
"CC(C)(C)CCN1CCC(CS(=O)(=O)c2ccc(-c3c(Cl)cc(Nc4n[nH]c(N)n4)cc3C(F)(F)F)cc2)CC1 [Compound 57, N*3*-{2-Chloro-4′-[1-(3,3-dimethyl-butyl)-piperidin-4-ylmethanesulfonyl]-6-trifluoromethyl-biphenyl-4-yl}-1H-[1,2,4]triazole-3,5-diamine; hydrochloride]",2.45 µM,0.049 µM,
"Nc1nc(Nc2cc(Cl)c(-c3ccc(S(=O)(=O)NC[C@@H]4CCCN4)cc3)c(C(F)(F)F)c2)n[nH]1 [Compound 27, 4′-(5-Amino-1H-[1,2,4]triazol-3-ylamino)-2′-chloro-6′-trifluoromethyl-biphenyl-4-sulfonic acid ((S)-1-pyrrolidin-2-ylmethyl)-amide; hydrochloride]",30.1 µM,0.052 µM,
"CS(=O)(=O)Nc1cccc(-c2c(F)cc(Nc3nc(N)n[nH]3)cc2C(F)(F)F)c1 [Compound 243, N-[4′-(5-Amino-2H-[1,2,4]-triazol-3-ylamino)-6′-fluoro-2′-trifluoromethyl-biphenyl-3-yl]-methanesulfonamide]",> 10 µM,0.213 µM,
"CNCCNS(=O)(=O)c1ccc(-c2c(Cl)cc(Nc3n[nH]c(N)n3)cc2C(F)(F)F)cc1 [Compound 213, 4′-(5-amino-1H-1,2,4-triazol-3-ylamino)-2′-chloro-N-(2-(methylamino)ethyl)-6′-(trifluoromethyl)biphenyl-4-sulfonamide hydrochloride]",> 10 µM,0.062 µM,
"CNS(=O)(=O)c1cccc(-c2c(F)cc(Nc3nc(N)n[nH]3)cc2C(F)(F)F)c1 [Compound 81, 4′-(5-Amino-2H-[1,2,4]-triazol-3-ylamino)-6′-fluoro-2′-trifluoromethyl-biphenyl-3-sulfonic acid methylamide]",34.9 µM,0.549 µM,
"CS(=O)(=O)c1cccc(-c2c(F)cc(Nc3nc(N)n[nH]3)cc2F)c1 [Compound 80, N^5-(2,6-difluoro-3′-(methylsulfonyl)biphenyl-4-yl)-1H-[1,2,4]-triazole-3,5-diamine]",> 10 µM,0.286 µM,
"Nc1nc(Nc2cc(Cl)c(-c3ccc4c(c3)NC(=O)CO4)c(C(F)(F)F)c2)n[nH]1 [Compound 47, 6-[4-(5-Amino-1H-[1,2,4]triazol-3-ylamino)-2-chloro-6-trifluoromethyl-phenyl]-4H-benzo[1,4]oxazin-3-one]",0.82 µM,0.544 µM,
"COc1ccccc1-c1c(Cl)cc(Nc2n[nH]c(N)n2)cc1Cl [Compound 120, N-3-(2,6-Dichloro-2′-methoxy-biphenyl-4-yl)-1H-[1,2,4]triazole-3,5-diamine]",1.12 µM,0.181 µM,
"CC1(O)CN(S(=O)(=O)c2ccc(-c3c(Cl)cc(Nc4n[nH]c(N)n4)cc3C(F)(F)F)cc2)C1 [Compound 63, 1-[4′-(5-Amino-1H-[1,2,4]triazol-3-ylamino)-6′-chloro-2′-trifluoromethyl-biphenyl-4-sulfonyl]-3-methyl-azetidin-3-ol]",3.86 µM,0.018 µM,
"CC1(NS(=O)(=O)c2ccc(-c3c(Cl)cc(Nc4n[nH]c(N)n4)cc3C(F)(F)F)cc2)CNC1 [Compound 207, 4′-(5-amino-1H-1,2,4-triazol-3-ylamino)-2′-chloro-N-(3-methylazetidin-3-yl)-6′-(trifluoromethyl)biphenyl-4-sulfonamide hydrochloride]",> 10 µM,0.029 µM,
"CS(=O)(=O)c1cccc(-c2c(Cl)cc(Nc3n[nH]c(N)n3)cc2C(F)(F)F)c1 [Compound 195, N3-(2-chloro-3′-(methylsulfonyl)-6-(trifluoromethyl)biphenyl-4-yl)-1H-1,2,4-triazole-3,5-diamine]",39.7 µM,0.212 µM,
"CC(C)S(=O)(=O)c1ccc(-c2c(Cl)cc(Nc3n[nH]c(N)n3)cc2C(F)(F)F)cc1 [Compound 228, N*3*-[6-Chloro-4′-(propane-2-sulfonyl)-2-trifluoromethyl-biphenyl-4-yl]-1H-[1,2,4]triazole-3,5-diamine]",7.52 µM,,0.042 µM
"C[C@H](NS(C)(=O)=O)c1ccc(-c2c(Cl)cc(Nc3n[nH]c(N)n3)cc2C(F)(F)F)cc1 [Compound 13, N—{(S)-1-[4′-(5-Amino-1H-[1,2,4]triazol-3-ylamino)-2′-chloro-6′-trifluoromethyl-biphenyl-4-yl]-ethyl}-methanesulfonamide]",21 µM,0.027 µM,
"Nc1n[nH]c(Nc2cc(F)c(-c3ccc(S(=O)(=O)C(F)(F)F)cc3)c(C(F)(F)F)c2)n1 [Compound 88, N^5-[6-Fluoro-4′-trifluoromethanesulfonyl-2-trifluoromethylbiphenyl-4-yl]-1H-[1,2,4]-triazole-3,5-diamine]",25.2 µM,1.95 µM,
"CC(C)(C)OC(=O)N1CCCC1CCOc1ccc(-c2c(Cl)cc(Nc3n[nH]c(N)n3)cc2Cl)cc1 (stereo not shown) [Compound 266, 2-{2-[4′-(5-Amino-1H-[1,2,4]triazol-3-ylamino)-2′,6′-dichloro-biphenyl-4-yloxy]-ethyl}-pyrrolidine-1-carboxylic acid tert-butyl ester]",> 10 µM,0.103 µM,
"CC(C)(C)OC(=O)[C@@H]1CCCN1S(=O)(=O)c1ccc(-c2c(Cl)cc(Nc3n[nH]c(N)n3)cc2C(F)(F)F)cc1 [Compound 3, (S)-1-[4′-(5-Amino-1H-[1,2,4]triazol-3-ylamino)-2′-chloro-6′-trifluoromethyl-biphenyl-4-sulfonyl]-pyrrolidine-2-carboxylic acid tert-butyl ester]",4.37 µM,0.005 µM,
"CNC(=O)c1ccc(-c2c(Cl)cc(Nc3n[nH]c(N)n3)cc2C(F)(F)F)cc1F [Compound 291, 4′-(5-amino-1H-1,2,4-triazol-3-ylamino)-2′-chloro-3-fluoro-N-methyl-6′-(trifluoromethyl)biphenyl-4-carboxamide]",21.5 µM,0.325 µM,
"CC(C)(C)NS(=O)(=O)c1cccc(-c2c(Cl)cc(Nc3n[nH]c(N)n3)cc2C(F)(F)F)c1 [Compound 176, 4′-(5-amino-1H-1,2,4-triazol-3-ylamino)-N-tert-butyl-2′-chloro-6′-(trifluoromethyl)biphenyl-3-sulfonamide]",9.6 µM,0.019 µM,
"CC(C)(C)CCN1CCCC(S(=O)(=O)c2ccc(-c3c(Cl)cc(Nc4n[nH]c(N)n4)cc3C(F)(F)F)cc2)C1 (stereo not shown) [Compound 17, N*3*-{2-Chloro-4′-[1-(3,3-dimethyl-butyl)-piperidine-3-sulfonyl]-6-trifluoromethyl-biphenyl-4-yl}-1H-[1,2,4]triazole-3,5-diamine; hydrochloride]",4.9 µM,0.043 µM,
"CC(C)(C)NS(=O)(=O)c1ccc(-c2c(Cl)cc(Nc3n[nH]c(N)n3)cc2Cl)cc1 [Compound 164, 4′-(5-amino-1H-1,2,4-triazol-3-ylamino)-N-tert-butyl-2′,6′-dichlorobiphenyl-4-sulfonamide]",7.06 µM,0.004 µM,
"CN(C)CCOc1ccc(-c2c(Cl)cc(Nc3n[nH]c(N)n3)cc2Cl)cc1 [Compound 269, N*3*-[2,6-Dichloro-4′-(2-dimethylamino-ethoxy)-biphenyl-4-yl]-1H-[1,2,4]triazole-3,5-diamine]",6.09 µM,0.122 µM,
"CN(CCOc1ccc(-c2c(Cl)cc(Nc3n[nH]c(N)n3)cc2C(F)(F)F)cc1)C(=O)OC(C)(C)C [Compound 125, {2-[4′-(5-Amino-1H-[1,2,4]triazol-3-ylamino)-6′-chloro-2′-trifluoromethyl-biphenyl-4-yloxy]-ethyl}-methyl-carbamic acid tert-butyl ester]",> 10 µM,0.096 µM,
"Nc1nc(Nc2cc(Cl)c(-c3ccc(F)c(C(=O)NCCO)c3)c(C(F)(F)F)c2)n[nH]1 [Compound 294, 4′-(5-amino-1H-1,2,4-triazol-3-ylamino)-2′-chloro-4-fluoro-N-(2-hydroxyethyl)-6′-(trifluoromethyl)biphenyl-3-carboxamide]",38.3 µM,0.544 µM,
"Nc1nc(Nc2cc(Cl)c(-c3ccc(S(=O)(=O)N4CCC(O)CC4)cc3)c(C(F)(F)F)c2)n[nH]1 [Compound 194, 1-(4′-(5-amino-1H-1,2,4-triazol-3-ylamino)-2′-chloro-6′-(trifluoromethyl)biphenyl-4-ylsulfonyl)piperidin-4-ol]",22.8 µM,0.115 µM,

# Source: patent US9693997B2, “Antiviral compounds” (priority 2013, dated 2017)
